Measurements published in paper PMC4724694 (Acta Pharmaceutica Sinica. B, 2016).
Like-named read-outs stand apart in the source and are kept apart here.

What was measured:
5-LOX [1] = target: T1, 5-LOX (Rattus norvegicus, UniProt P12527); assay: Inhibition of 5-LOX product synthesis; format: cell-based; conditions: for inhibition at 5 µM: PMNL, read-out: Inhibition at 5 μmol/L (%); for IC50: rat peritoneal polymorphonuclear leukocytes; for Inhibition at 5 μmol/L (%): rat PMNLs, mean of three determinations
T1 sequence (P12527 1-673): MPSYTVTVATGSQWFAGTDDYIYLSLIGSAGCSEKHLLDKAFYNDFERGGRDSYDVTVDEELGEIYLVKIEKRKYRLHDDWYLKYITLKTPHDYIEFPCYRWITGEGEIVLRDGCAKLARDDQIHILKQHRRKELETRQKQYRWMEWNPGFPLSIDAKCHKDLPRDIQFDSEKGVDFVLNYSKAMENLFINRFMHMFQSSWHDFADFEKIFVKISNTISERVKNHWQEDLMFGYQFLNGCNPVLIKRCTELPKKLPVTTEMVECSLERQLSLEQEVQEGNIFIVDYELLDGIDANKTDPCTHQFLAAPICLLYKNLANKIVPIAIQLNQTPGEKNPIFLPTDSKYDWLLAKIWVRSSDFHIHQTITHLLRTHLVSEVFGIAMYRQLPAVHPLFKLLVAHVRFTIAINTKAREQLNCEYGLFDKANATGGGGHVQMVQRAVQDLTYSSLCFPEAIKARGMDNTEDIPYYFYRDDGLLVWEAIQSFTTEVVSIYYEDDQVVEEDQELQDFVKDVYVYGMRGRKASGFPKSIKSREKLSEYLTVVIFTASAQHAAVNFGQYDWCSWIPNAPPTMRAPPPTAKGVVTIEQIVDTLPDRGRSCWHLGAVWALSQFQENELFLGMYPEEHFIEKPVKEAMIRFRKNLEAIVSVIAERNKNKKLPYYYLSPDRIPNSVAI

5-LOX [2] = target: T2, 5-LOX (Homo sapiens, UniProt P09917); assay: Inhibition of 5-LOX product synthesis; format: cell-based
T2 sequence (P09917 1-674): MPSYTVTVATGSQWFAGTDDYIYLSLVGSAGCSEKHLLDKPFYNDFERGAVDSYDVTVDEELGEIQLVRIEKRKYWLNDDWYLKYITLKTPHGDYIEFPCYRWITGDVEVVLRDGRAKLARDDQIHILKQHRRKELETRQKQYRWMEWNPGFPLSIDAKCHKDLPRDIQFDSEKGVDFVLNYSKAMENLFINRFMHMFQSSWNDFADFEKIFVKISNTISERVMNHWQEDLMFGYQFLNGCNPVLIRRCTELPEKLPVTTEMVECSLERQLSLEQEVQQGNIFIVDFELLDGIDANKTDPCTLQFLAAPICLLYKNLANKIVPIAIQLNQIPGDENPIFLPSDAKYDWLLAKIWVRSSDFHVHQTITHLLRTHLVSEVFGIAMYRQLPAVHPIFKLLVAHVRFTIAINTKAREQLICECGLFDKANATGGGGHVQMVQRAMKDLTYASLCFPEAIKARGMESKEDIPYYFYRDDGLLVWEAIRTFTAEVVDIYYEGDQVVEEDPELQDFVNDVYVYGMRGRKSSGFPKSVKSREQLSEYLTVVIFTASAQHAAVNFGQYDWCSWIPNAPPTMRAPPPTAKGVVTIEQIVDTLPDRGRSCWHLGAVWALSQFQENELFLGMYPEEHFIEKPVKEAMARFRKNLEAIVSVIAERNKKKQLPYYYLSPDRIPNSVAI

5-LOX [3] = target: T2, 5-LOX; assay: Cell-free 5-LOX enzymatic assay; format: biochemical

CC(C)(C)c1cc(NC(=O)c2cc(-c3ccccc3)n(-c3ccc(S(N)(=O)=O)cc3)n2)cc(C(C)(C)C)c1O [4a, N-(3,5-di-tert-butyl-4-hydroxyphenyl)-1-(4-aminosulfonyl-phenyl)-5-phenyl-1H-pyrazole-3-carboxamide]
inhibition at 5 µM (5-LOX [1]): 55.7%

Cc1ccc(-c2cc(C(=O)Nc3cc(C(C)(C)C)c(O)c(C(C)(C)C)c3)nn2-c2ccc(S(N)(=O)=O)cc2)cc1 [4b, N-(3,5-di-tert-butyl-4-hydroxyphenyl)-1-(4-aminosulfonylphenyl)-5-p-tolyl-1H-pyrazole-3-carboxamide]
inhibition at 5 µM (5-LOX [1]): 65.7%

COc1ccc(-c2cc(C(=O)Nc3cc(C(C)(C)C)c(O)c(C(C)(C)C)c3)nn2-c2ccc(S(N)(=O)=O)cc2)cc1 [4c, N-(3,5-di-tert-butyl-4-hydroxyphenyl)-1-(4-aminosulfonylphenyl)-5-p-meth-oxyphenyl-1H-pyrazole-3-carboxamide]
IC50 (5-LOX [1]; IC50 PMNL): 450 nM
inhibition at 5 µM (5-LOX [1]): 74.9%
IC50 (5-LOX [2]): 4870 nM
IC50 (5-LOX [3]): 136 ± 15 nM

CC(C)Cc1ccc(-c2cc(C(=O)Nc3cc(C(C)(C)C)c(O)c(C(C)(C)C)c3)nn2-c2ccc(S(N)(=O)=O)cc2)cc1 [4d, N-(3,5-di-tert-butyl-4-hydroxyphenyl)-1-(4-aminosulfonylphenyl)-5-p-iso-butylphenyl-1H-pyrazole-3-carboxamide]
inhibition at 5 µM (5-LOX [1]): 59%

CC(C)(C)c1cc(NC(=O)c2cc(-c3ccc4c(c3)OCCO4)n(-c3ccc(S(N)(=O)=O)cc3)n2)cc(C(C)(C)C)c1O [4f, N-(3,5-di-tert-butyl-4-hydroxyphenyl)-5-(2,3-dihydrobenzo [1, 4]dioxin-7-yl)-1-(4-aminosulfonylphenyl)-1H-pyrazole-3-carboxamide]
inhibition at 5 µM (5-LOX [1]): 50.7%

CC(C)(C)c1cc(NC(=O)c2cc(-c3ccc4ccccc4c3)n(-c3ccc(S(N)(=O)=O)cc3)n2)cc(C(C)(C)C)c1O [4g, N-(3,5-di-tert-butyl-4-hydroxyphenyl)-1-(4-aminosulfonylphenyl)-5-naphth-2-yl-1H-pyrazole-3-carboxamide]
IC50 (5-LOX [1]; IC50 PMNL): 750 nM
inhibition at 5 µM (5-LOX [1]): 66.1%
IC50 (5-LOX [2]): 2110 nM
IC50 (5-LOX [3]): 165 ± 17 nM

CC(C)(C)c1cc(NC(=O)c2cc(-c3ccc(F)cc3)n(-c3ccc(S(N)(=O)=O)cc3)n2)cc(C(C)(C)C)c1O [4h, N-(3,5-di-tert-butyl-4-hydroxyphenyl)-1-(4-aminosulfonylphenyl)-5-p-fluorophenyl-1H-pyrazole-3-carboxamide]
inhibition at 5 µM (5-LOX [1]): 39.3%

CC(C)(C)c1cc(NC(=O)c2cc(-c3ccc(C(F)(F)F)cc3)n(-c3ccc(S(N)(=O)=O)cc3)n2)cc(C(C)(C)C)c1O [4i, N-(3,5-di-tert-butyl-4-hydroxyphenyl)-1-(4-aminosulfonylphenyl)-5-p-trifluoromethylphenyl-1H-pyrazole-3-carboxamide]
Inhibition at 5 μmol/L (%) (5-LOX [1]): 61.9%

CC(C)(C)c1cc(NC(=O)c2cc(C3CCCCC3)n(-c3ccc(S(N)(=O)=O)cc3)n2)cc(C(C)(C)C)c1O [4j, N-(3,5-di-tert-butyl-4-hydroxyphenyl)-1-(4-aminosulfonylphenyl)-5-cyclo-hexyl-1H-pyrazole-3-carboxamide]
IC50 (5-LOX [1]; IC50 PMNL): 1070 nM
inhibition at 5 µM (5-LOX [1]): 69.2%
IC50 (5-LOX [2]): 33900 nM

CC(C)(C)c1cc(NC(=O)c2cc(-c3ccc(Br)s3)n(-c3ccc(S(N)(=O)=O)cc3)n2)cc(C(C)(C)C)c1O [4k, N-(3,5-di-tert-butyl-4-hydroxyphenyl)-1-(4-aminosulfonylphenyl)-5-(5-bromothiophen-2-yl)-1H-pyrazole-3-carboxamide]
IC50 (5-LOX [1]; IC50 PMNL): 900 nM
inhibition at 5 µM (5-LOX [1]): 74.5%
IC50 (5-LOX [2]): 5830 nM
IC50 (5-LOX [3]): 159 ± 16 nM

CC(C)(C)c1cc(NC(=O)c2cc(-c3ccccc3)n(-c3ccc(S(C)(=O)=O)cc3)n2)cc(C(C)(C)C)c1O [5a, N-(3,5-di-tert-butyl-4-hydroxyphenyl)-1-(4-methylsulfonylphenyl)-5-phenyl-1H-pyrazole-3-carboxamide]
inhibition at 5 µM (5-LOX [1]): 41.9%

Cc1ccc(-c2cc(C(=O)Nc3cc(C(C)(C)C)c(O)c(C(C)(C)C)c3)nn2-c2ccc(S(C)(=O)=O)cc2)cc1 [5b, N-(3,5-di-tert-butyl-4-hydroxyphenyl)-1-(4-methylsulfonylphenyl)-5-p-tolyl-1H-pyrazole-3-carboxamide]
inhibition at 5 µM (5-LOX [1]): 62.8%

COc1ccc(-c2cc(C(=O)Nc3cc(C(C)(C)C)c(O)c(C(C)(C)C)c3)nn2-c2ccc(S(C)(=O)=O)cc2)cc1 [5c, N-(3,5-di-tert-butyl-4-hydroxyphenyl)-1-(4-methylsulfonylphenyl)-5-p-methoxyphenyl-1H-pyrazole-3-carboxamide]
inhibition at 5 µM (5-LOX [1]): 35.6%

CC(C)Cc1ccc(-c2cc(C(=O)Nc3cc(C(C)(C)C)c(O)c(C(C)(C)C)c3)nn2-c2ccc(S(C)(=O)=O)cc2)cc1 [5d, N-(3,5-di-tert-butyl-4-hydroxyphenyl)-1-(4-methylsulfonylphenyl)-5-p-iso-butylphenyl-1H-pyrazole-3-carboxamide]
inhibition at 5 µM (5-LOX [1]): 60.2%

CC(C)(C)c1cc(NC(=O)c2cc(-c3ccc4c(c3)OCO4)n(-c3ccc(S(C)(=O)=O)cc3)n2)cc(C(C)(C)C)c1O [5e, N-(3,5-di-tert-butyl-4-hydroxyphenyl)-5-(benzo [1, 3]dioxol-5-yl)-1-(4-methylsulfonylphenyl)-1H-pyrazole-3-carboxamide]
IC50 (5-LOX [1]; IC50 PMNL): 640 nM
inhibition at 5 µM (5-LOX [1]): 79.3%
IC50 (5-LOX [2]): 940 nM
IC50 (5-LOX [3]): 169 ± 16 nM

CC(C)(C)c1cc(NC(=O)c2cc(-c3ccc4c(c3)OCCO4)n(-c3ccc(S(C)(=O)=O)cc3)n2)cc(C(C)(C)C)c1O [5f, N-(3,5-di-tert-butyl-4-hydroxyphenyl)-5-(2,3-dihydrobenzo [1, 4]dioxin-7-yl)-1-(4-methylsulfonylphenyl)-1H-pyrazole-3-carboxamide]
IC50 (5-LOX [1]; IC50 PMNL): 810 nM
inhibition at 5 µM (5-LOX [1]): 70.3%
IC50 (5-LOX [2]): 4650 nM
IC50 (5-LOX [3]): 273 ± 21 nM

CC(C)(C)c1cc(NC(=O)c2cc(-c3ccc4ccccc4c3)n(-c3ccc(S(C)(=O)=O)cc3)n2)cc(C(C)(C)C)c1O [5g, N-(3,5-di-tert-butyl-4-hydroxyphenyl)-1-(4-methylsulfonylphenyl)-5-naphth-2-yl-1H-pyrazole-3-carboxamide]
inhibition at 5 µM (5-LOX [1]): 51.7%

CC(C)(C)c1cc(NC(=O)c2cc(-c3ccc(C(F)(F)F)cc3)n(-c3ccc(S(C)(=O)=O)cc3)n2)cc(C(C)(C)C)c1O [5i, N-(3,5-di-tert-butyl-4-hydroxyphenyl)-1-(4-methylsulfonylphenyl)-5-p-tri-fluoromethylphenyl-1H-pyrazole-3-carboxamide]
Inhibition at 5 μmol/L (%) (5-LOX [1]): 69.6%
IC50 (5-LOX [1]; read-out: IC50 PMNL): 800 nM
IC50 (5-LOX [2]; read-out: IC50 HWB, human whole blood): 1130 nM
IC50 (5-LOX [3]; read-out: IC50 Enzymatic assay, cell-free, human 5-LOX, triplicate): 127 ± 29 nM

CC(C)(C)c1cc(NC(=O)c2cc(C3CCCCC3)n(-c3ccc(S(C)(=O)=O)cc3)n2)cc(C(C)(C)C)c1O [5j, N-(3,5-di-tert-butyl-4-hydroxyphenyl)-1-(4-methylsulfonylphenyl)-5-cyclo-hexyl-1H-pyrazole-3-carboxamide]
inhibition at 5 µM (5-LOX [1]): 57.3%

CC(C)(C)c1cc(NC(=O)c2cc(-c3ccccc3)n(-c3ccc(F)cc3)n2)cc(C(C)(C)C)c1O [6a, N-(3,5-di-tert-butyl-4-hydroxyphenyl)-1-(4-fluorophenyl)-5-phenyl-1H-pyrazole-3-carboxamide]
inhibition at 5 µM (5-LOX [1]): 56.8%

Cc1ccc(-c2cc(C(=O)Nc3cc(C(C)(C)C)c(O)c(C(C)(C)C)c3)nn2-c2ccc(F)cc2)cc1 [6b, N-(3,5-di-tert-butyl-4-hydroxyphenyl)-1-(4-fluorophenyl)-5-p-tolyl-1H-pyrazole-3-carboxamide]
IC50 (5-LOX [1]; IC50 PMNL): 820 nM
inhibition at 5 µM (5-LOX [1]): 83.7%
IC50 (5-LOX [2]): 10200 nM
IC50 (5-LOX [3]): 327 ± 22 nM
